This series can be described thus: method code SF-AS, from DOI: 10.1002/jps.2600771105, PMID: 3225751. The conditions noted are these: pH 1.0.
What is called logD is lipophilicity at a set pH, counting ionised and neutral species. The low end stands for a more hydrophilic compound, the high end for a more lipophilic compound. In turn, `CCC1(C(C)(C)C)C(=O)NC(=O)NC1=O` came in with a pH-dependent lipophilicity (logD) of 1.38. On to `CC(C)C1(C)C(=O)NC(=O)NC1=O`, for which the pH-dependent lipophilicity (logD) was found to be 0.54. In turn, `CCCC1(CCC)C(=O)NC(=S)NC1=O` showed a logD of 2.66. With `CC(C)(C)C1C(=O)NC(=O)NC1=O` the figure was 0.28. For the compound `CC1(C)C(=O)NC(=S)NC1=O`, the logD came to 0.5.

With `CC(C)C1C(=O)NC(=O)NC1=O`, the logD is -0.02.

Compound `CC(C)(C)C1(Cl)C(=O)NC(=O)NC1=O` showed a log distribution coefficient (logD) of 0.82. With `C=CCC1(C(C)(C)C)C(=O)NC(=O)NC1=O` the figure was 1.64. In the case of `CCCC1(CCC)C(=O)NC(=O)NC1=O`, the logD came out at 1.75. With `CCCCC1(CC)C(=O)NC(=O)NC1=O` the figure was 1.73; with `CCC1(CC)C(=O)NC(=S)NC1=O`, 1.5; with `CCCCC1(CCCC)C(=O)NC(=O)NC1=O`, 2.7. In turn, `CC(C)(C)C1(C)C(=O)NC(=O)NC1=O` displayed a logD of 0.8.

Turning to `CC(C)C1(C(C)C)C(=O)NC(=O)NC1=O`, the logD was 1.56.

These data come from the SangsterLogP compilation.
